These results are taken from patent US7029857B1, “Processes for obtaining compounds employing SNORF72 receptors” (H. Lundbeck A/S, priority 1999, dated 2006).

No end group written: not given here.

The subject of one assay is vector-transfected cells. Nature of the assay: Intracellular Ca2+ release in vector (mock)-transfected COS-7 cells. Format: cell-based. Particulars: mock COS-7 cells. Here is the method: A typical protocol for the DEAE-dextran method as applied to COS-7 and HEK293 cells is described as follows. Cells to be used for transfection are split 24 hours prior to the transfection to provide flasks which are 70–80% confluent at the time of transfection. Briefly, 8 μg of receptor DNA plus 8 μg of any additional DNA needed (e.g. Gα protein expression vector, reporter construct, antibiotic resistance marker, mock vector, etc.) are added to 9 ml of complete DMEM plus DEAE-dextran mixture (10 mg/ml in PBS). Cells plated into a T225 flask (sub-confluent) are washed once with PBS and the DNA mixture is added to each flask. The cells are allowed to incubate for 30 minutes at 37° C., 5% CO2. Following the incubation, 36 ml of complete DMEM with 80 μM chloroquine is added to each flask and allowed to incubate an additional 3 hours. The medium is then aspirated and 24 ml of complete medium containing 10% DMSO for exactly 2 minutes and then aspirated. […]
The compounds of interest are diluted in wash buffer (Hank's BSS (without phenol red), 20 mM HEPES, 2.5 mM probenecid) to a 4× final concentration and aliquoted into a clear v-bottom plate (Nunc). […] Compounds are added to the cell plates and responses are measured using the FLIPR™ instrument. The data are then collected and analyzed using the FLIPR™ software and Graphpad Prism. […]

Another assay has as its system control oocytes. Description: Cl- currents in control oocytes lacking injection of foreign mRNA. Format: cell-based, Xenopus laevis. On the procedure: In the present invention, oocytes were harvested from Xenopus laevis and injected with mRNA transcripts as previously described (Quick and Lester, 1994; Smith et al., 1997). SNORF62 mRNA transcript was synthesized using the T7 polymerase (“Message Machine”, Ambion) from linearized plasmids or PCR products containing the complete coding region of the gene. Oocytes were injected with 1–50 ng synthetic receptor RNA and incubated for 3–8 days at 17° C. Currents were recorded under dual electrode voltage clamp (Axon Instruments Inc.) with 3 M KCl-filled glass microelectrodes having resistances of 1–2 Mohm. Unless otherwise specified, oocytes were voltage clamped at a holding potential of −80 mV. During recordings, oocytes were bathed in continuously flowing (1–3 mL/min) medium containing 96 mM NaCl, 2 mM KCl, 1.8 mM CaCl2, 1 mM MgCl2, and 5 mM HEPES, pH 7.5 (ND96). Drugs were applied either by local perfusion from a 10 μL glass capillary tube fixed at a distance of 0.5 mm from the oocyte, or by switching from a series of gravity fed perfusion lines.

Assay [1] addresses T1, SNORF62 (Homo sapiens, UniProt Q9HB89).
T1 sequence (Q9HB89 1-426): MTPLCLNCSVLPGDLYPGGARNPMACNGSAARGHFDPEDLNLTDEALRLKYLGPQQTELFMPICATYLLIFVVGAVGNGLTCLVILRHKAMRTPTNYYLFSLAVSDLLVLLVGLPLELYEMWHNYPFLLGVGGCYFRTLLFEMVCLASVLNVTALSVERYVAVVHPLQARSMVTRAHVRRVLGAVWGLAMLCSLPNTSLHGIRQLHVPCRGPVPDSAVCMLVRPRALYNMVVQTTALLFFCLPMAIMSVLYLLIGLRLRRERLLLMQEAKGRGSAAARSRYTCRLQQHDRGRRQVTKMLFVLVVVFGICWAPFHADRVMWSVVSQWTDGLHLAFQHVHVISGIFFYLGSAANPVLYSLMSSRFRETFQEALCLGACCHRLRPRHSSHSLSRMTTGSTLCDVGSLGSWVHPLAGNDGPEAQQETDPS
Description: Calcium-activated Cl- currents in Xenopus oocytes injected with SNORF62 mRNA. Format: cell-based. The arrangement: from linearized plasmids or PCR products containing the complete coding region of the gene; expressed in transfected cells; host or cells: Xenopus laevis oocytes injected with in vitro transcribed SNORF62 mRNA. Particulars: 1 μM peptide, n=3. Here is the method:
Heterologous expression of GPCRs in Xenopus oocytes has been widely used to determine the identity of signaling pathways activated by agonist stimulation (Gundersen et al., 1983; Takahashi et al., 1987). Activation of the phospholipase C (PLC) pathway is assayed by applying a test compound in ND96 solution to oocytes previously injected with mRNA for the human SNORF62 and observing inward currents at a holding potential of approximately −80 mV. The appearance of currents that reverse at −25 mV and display other properties of the Ca^++-activated Cl^− channel is indicative of receptor-acitivation of PLC and release of IP3 and intracellular Ca^++.
In the present invention, oocytes were harvested from Xenopus laevis and injected with mRNA transcripts as previously described (Quick and Lester, 1994; Smith et al., 1997). SNORF62 mRNA transcript was synthesized using the T7 polymerase (“Message Machine”, Ambion) from linearized plasmids or PCR products containing the complete coding region of the gene. Oocytes were injected with 1–50 ng synthetic receptor RNA and incubated for 3–8 days at 17° C. Currents were recorded under dual electrode voltage clamp (Axon Instruments Inc.) with 3 M KCl-filled glass microelectrodes having resistances of 1–2 Mohm. Unless otherwise specified, oocytes were voltage clamped at a holding potential of −80 mV. […]

The target of assay [2] is T1, SNORF62. Nature of the assay: Inositol phosphate (IP) release in SNORF62-transfected COS-7 cells. The assay is classed as cell-based. Set-up: The SNORF62 cDNA codes for a protein of 426 amino acids; expressed in transfected cells; host or cells: COS-7 (transient, DEAE-dextran).
Description: Human SNORF62 receptor-mediated activation and human SNORF72 receptor-mediated activation of the inositol phosphate (IP) second messenger pathways were assessed by radiometric measurement of IP products.
For example, in a 96 well microplate format assay, COS-7 cells expressing the receptor of interest were plated at a density of 70,000 cells per well and allowed to incubate for 24 hours. The cells were then labeled with 0.5 μCi [^3H]myo-inositol overnight at 37° C., 5% CO2. Immediately before the assay, the medium was removed and replaced with 180 μL of Phosphate-Buffered Saline (PBS) containing 10 mM LiCl. The plates were then incubated for 20 min at 37° C., 5% CO2. Following the incubation, the cells were challenged with agonist (20 μl/well; 10× concentration) for 30 min at 37° C. The challenge was terminated by the addition of 100 μL of 5% v/v trichloroacetic acid, followed by incubation at 4° C. for greater than 30 minutes. Total IPs were isolated from the lysate by ion exchange chromatography. Briefly, the lysed contents of the wells were transferred to a Multiscreen HV filter plate (Millipore) containing Dowex AG1-X8 (200–400 mesh, formate form). The filter plates were prepared adding 100 μL of Dowex AG1-X8 suspension (50% v/v, water: resin) to each well. The filter plates were placed on a vacuum manifold to wash or elute the resin bed. Each well was first washed 2 times with 200 μl of 5 mM myo-inositol. Total [^3H]inositol phosphates were eluted with 75 μl of 1.2M ammonium formate/0.1M formic acid solution into 96-well plates. 200 μL of scintillation cocktail was added to each well, and the radioactivity was determined by liquid scintillation counting.

With “FRVDEEFQSPFASQSRGYFLFRPRN-NH2 [human NMU-25, FRVDEEFQSPFASQSRGYFLFRPRN—NH2]”, the “effect on intracellular Ca2+ release in vector-transfected cells” value with vector-transfected cells is recorded as “no significant effect”. Also, the “response in control oocytes” value in the assay with control oocytes is “no response”. Also, the current amplitude at SNORF62 [1] is reported as 1065±211 nA. The “release of IP second messengers above basal” value at SNORF62 [2] is recorded as “approximately 2 fold”.
